Source: ChEMBL document CHEMBL4507268 (2021)

Assays:
Settings in all cases: Compound concentration 1.0 uM
[1] = target: T1, Ephrin type-A receptor 3 (Homo sapiens) (UniProt P29320)
T1 sequence (whole entry): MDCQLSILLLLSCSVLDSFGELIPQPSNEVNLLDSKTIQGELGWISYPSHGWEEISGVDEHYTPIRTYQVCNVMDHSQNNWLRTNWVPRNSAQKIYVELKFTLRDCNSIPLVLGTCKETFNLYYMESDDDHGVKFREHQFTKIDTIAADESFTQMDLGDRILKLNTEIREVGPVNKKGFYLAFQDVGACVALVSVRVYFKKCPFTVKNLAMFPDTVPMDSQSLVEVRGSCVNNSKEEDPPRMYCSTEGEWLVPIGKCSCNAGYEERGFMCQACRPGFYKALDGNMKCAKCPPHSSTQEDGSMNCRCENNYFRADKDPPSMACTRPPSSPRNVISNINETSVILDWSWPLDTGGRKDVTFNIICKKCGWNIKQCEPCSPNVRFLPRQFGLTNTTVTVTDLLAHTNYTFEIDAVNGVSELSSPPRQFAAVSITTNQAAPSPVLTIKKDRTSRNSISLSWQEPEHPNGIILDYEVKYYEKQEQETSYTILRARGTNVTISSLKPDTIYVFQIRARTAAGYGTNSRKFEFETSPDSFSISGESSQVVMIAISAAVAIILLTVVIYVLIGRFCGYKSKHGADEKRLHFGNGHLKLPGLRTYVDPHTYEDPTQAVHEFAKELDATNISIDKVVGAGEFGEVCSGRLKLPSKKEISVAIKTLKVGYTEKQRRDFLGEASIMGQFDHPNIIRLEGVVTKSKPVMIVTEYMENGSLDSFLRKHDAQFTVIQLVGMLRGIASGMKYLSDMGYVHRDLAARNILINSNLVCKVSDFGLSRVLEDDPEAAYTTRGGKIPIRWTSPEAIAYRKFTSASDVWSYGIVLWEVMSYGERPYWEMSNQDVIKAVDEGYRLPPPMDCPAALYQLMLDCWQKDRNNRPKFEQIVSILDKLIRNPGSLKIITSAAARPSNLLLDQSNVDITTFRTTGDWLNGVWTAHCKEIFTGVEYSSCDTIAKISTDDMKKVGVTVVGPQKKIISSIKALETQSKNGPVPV

[2] = target: T2, Ephrin type-A receptor 8 (Homo sapiens) (UniProt P29322)
T2 sequence (whole entry): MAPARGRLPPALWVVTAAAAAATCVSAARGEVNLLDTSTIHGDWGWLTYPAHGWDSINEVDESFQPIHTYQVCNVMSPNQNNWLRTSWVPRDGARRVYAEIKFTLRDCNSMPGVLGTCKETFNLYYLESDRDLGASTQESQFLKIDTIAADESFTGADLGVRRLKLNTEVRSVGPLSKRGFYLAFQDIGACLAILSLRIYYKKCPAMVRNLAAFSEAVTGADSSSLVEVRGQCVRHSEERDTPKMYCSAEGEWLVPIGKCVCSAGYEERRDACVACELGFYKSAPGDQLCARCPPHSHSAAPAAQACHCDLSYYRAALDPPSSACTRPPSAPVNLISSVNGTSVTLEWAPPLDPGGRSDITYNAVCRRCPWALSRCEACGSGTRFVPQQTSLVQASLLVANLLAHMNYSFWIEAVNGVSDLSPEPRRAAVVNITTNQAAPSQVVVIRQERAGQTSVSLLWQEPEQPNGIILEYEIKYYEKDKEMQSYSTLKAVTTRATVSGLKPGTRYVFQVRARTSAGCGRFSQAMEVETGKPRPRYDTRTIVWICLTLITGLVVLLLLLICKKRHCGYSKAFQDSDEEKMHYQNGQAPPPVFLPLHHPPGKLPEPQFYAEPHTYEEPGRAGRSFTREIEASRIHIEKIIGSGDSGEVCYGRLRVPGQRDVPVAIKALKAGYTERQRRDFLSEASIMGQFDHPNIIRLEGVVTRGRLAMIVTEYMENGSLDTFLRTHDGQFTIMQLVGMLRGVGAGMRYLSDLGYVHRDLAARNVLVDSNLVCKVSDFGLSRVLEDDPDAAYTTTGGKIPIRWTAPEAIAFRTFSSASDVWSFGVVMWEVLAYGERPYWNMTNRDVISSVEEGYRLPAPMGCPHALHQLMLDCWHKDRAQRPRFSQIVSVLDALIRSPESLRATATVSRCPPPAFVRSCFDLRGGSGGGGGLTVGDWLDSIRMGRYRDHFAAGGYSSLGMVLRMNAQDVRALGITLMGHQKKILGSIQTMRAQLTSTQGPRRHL

[3] = target: Serine/threonine-protein kinase 26 (Homo sapiens) (UniProt Q9P289)
Chain of Serine/threonine-protein kinase 26 (Homo sapiens) (Q9P289 2-416 limits assumed): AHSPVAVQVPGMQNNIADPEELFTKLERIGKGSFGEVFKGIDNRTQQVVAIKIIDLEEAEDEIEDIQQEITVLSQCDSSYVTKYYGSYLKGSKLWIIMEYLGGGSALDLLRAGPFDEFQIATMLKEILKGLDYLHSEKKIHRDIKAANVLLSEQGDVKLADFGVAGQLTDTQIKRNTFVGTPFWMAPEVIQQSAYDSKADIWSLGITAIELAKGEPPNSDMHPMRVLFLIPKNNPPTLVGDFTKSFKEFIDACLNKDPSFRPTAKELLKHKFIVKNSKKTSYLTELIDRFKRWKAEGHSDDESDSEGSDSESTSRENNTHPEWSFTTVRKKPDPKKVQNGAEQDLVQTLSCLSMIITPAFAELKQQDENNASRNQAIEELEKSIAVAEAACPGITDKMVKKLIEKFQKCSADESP

[4] = target: T3, SNF-related serine/threonine-protein kinase (Homo sapiens) (UniProt Q9NRH2)
T3 sequence (whole entry): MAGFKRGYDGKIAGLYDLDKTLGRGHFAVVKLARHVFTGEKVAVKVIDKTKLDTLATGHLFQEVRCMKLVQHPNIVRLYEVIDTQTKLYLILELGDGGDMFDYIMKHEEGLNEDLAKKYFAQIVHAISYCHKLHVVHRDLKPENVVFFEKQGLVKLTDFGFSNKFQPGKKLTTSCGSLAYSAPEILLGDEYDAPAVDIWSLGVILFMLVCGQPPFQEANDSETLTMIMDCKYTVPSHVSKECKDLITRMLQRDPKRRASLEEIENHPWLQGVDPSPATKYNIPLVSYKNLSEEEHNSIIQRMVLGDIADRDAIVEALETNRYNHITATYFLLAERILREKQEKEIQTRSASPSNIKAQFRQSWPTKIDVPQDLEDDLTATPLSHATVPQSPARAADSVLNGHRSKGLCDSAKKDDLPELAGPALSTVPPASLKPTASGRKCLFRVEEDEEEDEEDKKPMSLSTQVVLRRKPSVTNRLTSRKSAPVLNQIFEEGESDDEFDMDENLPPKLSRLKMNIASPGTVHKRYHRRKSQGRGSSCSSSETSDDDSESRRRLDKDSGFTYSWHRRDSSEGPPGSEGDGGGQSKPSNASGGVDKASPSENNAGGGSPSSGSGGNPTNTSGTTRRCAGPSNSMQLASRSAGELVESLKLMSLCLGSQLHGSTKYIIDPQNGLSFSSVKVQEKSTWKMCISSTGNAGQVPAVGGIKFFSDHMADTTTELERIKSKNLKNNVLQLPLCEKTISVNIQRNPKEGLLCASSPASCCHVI

Measured: % residual kinase activity

CN1CCN(c2cnc3c(C4CCN(C(=O)c5ccc(OC(F)(F)F)cc5N)CC4)ncnc3c2)CC1 [BAY-885]
inactive: [1] 86% | [2] 104% | [3] 103% | [4] 118%
